Test results reported in US20220144847A1, “HETEROCYCLIC COMPOUND, PHARMACEUTICAL COMPOSITION COMPRISING SAME, PREPARATION METHOD THEREFOR, AND USE THEREOF” (Sichuan Kelun-Biotech Biopharmaceutical Co., Ltd., priority 2019, published 2022).
Where two headings read alike, the source gives them in different places. Each block holds one molecule with its values, some of them ahead of it.

How the values were obtained:
[1] = Pharmacokinetics and tissue distribution of compounds in rats; type: in vivo; conditions: male, SD, rat, PO 5 mg/kg; for AUC(0-t): read-out: AUC AUClast; for Cmax: read-out: Peak concentration Cmax; for Kp: read-out: T/P Ratio of AUClast in tissue to plasma; for Tmax: read-out: Time to peak concentration Tmax
Description: By intragastric administration (PO) of BLU-667 (prepared according to Example 5 of WO2017/079140A1) and Compound 17 to male SD rats respectively, the plasma concentrations and the tissue concentrations of BLU-667 and Compound 17 in brains, lungs and thyroid of rats were determined to investigate the pharmacokinetic characteristics. The dosage of administration by PO was 5 mg/kg, and the solvent was 0.5% MC (methylcellulose). With administration by PO, blood samples were collected at different time points (0 h before administration, and 0.25 h, 0.5 h, 1 h, 2 h, 4 h, 6 h, 8 h, and 24 h after administration). The blood samples were anticoagulated with dipotassium edetate, and centrifuged to provide plasma samples, which were stored at −80° C. Rats were sacrificed by exsanguination from abdominal aorta at 0.5 h, 2 h, 8 h, and 24 h after PO administration. Brain, lung and thyroid were collected, washed, and homogenized with normal saline at a certain ratio, to provide tissue samples which were stored at −80° C. The plasma samples and tissue samples were processed with precipitated protein and then analyzed by LC-MS/MS. The pharmacokinetic parameters were computed using WinNonlin 6.3 software and using a non-compartmental model.

[2] = tested on: human medullary thyroid carcinoma TT cells; test: Efficacy test in mice, subcutaneous xenograft tumor of TT cells; type: in vivo, Balb/c-nu mouse; conditions: 5 mg/kg, PO, BID; TT nude mouse xenograft
Description: Experimental purpose: To evaluate the in vivo efficacy of Compound 17 and BLU-667 in a Balb/c-nu mouse model with a subcutaneous xenograft tumor of human medullary thyroid carcinoma TT cells.
Drug preparation: Compound 17 was dissolved in 0.1 M aqueous solution of H3PO4, and BLU-667 was dissolved in 0.1 M aqueous solution of HOAc, to prepare clear solutions (pH: about 4.0). An aqueous solution of H3PO4 at a pH of about 4.0 was used for the solvent control group. The mode of administration was PO, BID.
Tumor measurement: The tumor diameter was measured with a vernier caliper twice a week. The computing formula of the tumor volume is: V=0.5×a×b^2, where a represents a long diameter of the tumor, and b represents a short diameter of the tumor. Evaluation of tumor growth inhibition rate (TGI (%)) for tumor inhibition efficacy of the compounds: TGI (%)=[(1-(mean tumor volume of a treatment group at the end of drug administration-mean tumor volume of the treatment group at the commencement of drug administration))/(mean tumor volume of a solvent control group at the end of treatment-mean tumor volume of the solvent control group at the commencement of treatment)]×100%.
Statistical analysis: Prism Graphpad5.0 software was used for statistical analysis based on the relative tumor volume at the end of the experiment. The comparison between multiple groups was analyzed by two-way ANOVA, and p<0.05 was considered as a significant difference.
Experimental results: In the TT nude mouse xenograft model of human medullary thyroid carcinoma, Compound 17 has a significant […] anti-tumor effect at a dose of 5 mg/kg. […] Relative tumor growth rate T/C (%)=TRTV/CRTV×100%, where TRTV is the mean relative tumor volume of the test compound group, CRTV is the relative tumor volume of the solvent control group; and the relative tumor volume RTV=Vt/V0, where V0 is the mean tumor volume at the commencement of the administration, and Vt is the mean tumor volume measured on day t after the administration.

[3] = target: RET-WT (Homo sapiens, UniProt P07949); test: RET inhibition experiment (HTRF KinEASE-TK kit), wild-type RET enzyme; type: biochemical; conditions: read-out: The IC50 (nM) for inhibiting RET-WT
RET-WT, sequence (P07949 29-1114): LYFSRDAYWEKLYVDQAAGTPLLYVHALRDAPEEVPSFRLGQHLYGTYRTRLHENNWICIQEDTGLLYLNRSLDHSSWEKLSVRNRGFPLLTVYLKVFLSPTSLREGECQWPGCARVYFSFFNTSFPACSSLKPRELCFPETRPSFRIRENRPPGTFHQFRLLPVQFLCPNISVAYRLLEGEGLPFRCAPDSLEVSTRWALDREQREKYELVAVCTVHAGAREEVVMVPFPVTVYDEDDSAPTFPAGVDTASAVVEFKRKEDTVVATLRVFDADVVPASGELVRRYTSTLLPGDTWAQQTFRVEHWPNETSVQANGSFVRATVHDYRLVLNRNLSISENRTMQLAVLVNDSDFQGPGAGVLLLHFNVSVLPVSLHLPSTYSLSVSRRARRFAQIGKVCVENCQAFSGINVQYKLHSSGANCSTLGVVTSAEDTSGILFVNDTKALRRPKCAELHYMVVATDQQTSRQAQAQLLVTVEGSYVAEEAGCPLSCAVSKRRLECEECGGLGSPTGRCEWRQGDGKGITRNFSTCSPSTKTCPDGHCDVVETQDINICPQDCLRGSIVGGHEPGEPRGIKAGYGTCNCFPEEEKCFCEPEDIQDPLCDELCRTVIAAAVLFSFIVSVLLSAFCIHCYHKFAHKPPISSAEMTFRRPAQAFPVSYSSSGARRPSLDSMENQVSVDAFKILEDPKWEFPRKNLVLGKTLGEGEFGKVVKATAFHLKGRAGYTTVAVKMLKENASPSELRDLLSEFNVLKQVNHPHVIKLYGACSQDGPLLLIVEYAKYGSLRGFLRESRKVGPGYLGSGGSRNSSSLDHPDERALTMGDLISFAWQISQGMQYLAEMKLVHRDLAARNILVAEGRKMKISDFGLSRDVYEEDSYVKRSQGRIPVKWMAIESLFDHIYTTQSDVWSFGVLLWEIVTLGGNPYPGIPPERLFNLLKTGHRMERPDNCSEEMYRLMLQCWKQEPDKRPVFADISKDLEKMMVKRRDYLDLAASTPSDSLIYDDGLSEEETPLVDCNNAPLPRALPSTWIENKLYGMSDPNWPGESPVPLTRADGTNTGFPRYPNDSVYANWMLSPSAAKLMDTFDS
Description: (§1) Experimental method: […] After incubation at room temperature for 40 min, TK antibody-cryptate and streptavidin-XL665 were added, and the test was performed after incubation at room temperature for 45 min. With the solvent group (DMSO) as the negative control and the buffer group (without RET enzyme) as the blank control, the relative inhibitory activity percentages (i.e., inhibition rates) of different concentrations of the compounds were computed as per the following formula: […] The relative inhibitory activity percentages of different concentrations of the compounds were plotted with respect to the compound concentrations, and the curve was fitted according to a four-parameter model to compute the IC50 value as per the following formula: y=min+(max-min)/(1+(x/IC50)^(-Hillslope)) where y is the relative inhibitory activity percentage, max is the maximum value of the fitted curve, min is the minimum value of the fitted curve, x is the logarithmic concentration of the compound, and Hillslope is the slope of the curve.

[4] = target: RET-V804M (Homo sapiens, UniProt P07949, V804M); test: RET inhibition experiment (HTRF KinEASE-TK kit), mutant RET-V804M; type: biochemical; conditions: read-out: The IC50 (nM) for inhibiting V804M
RET-V804M, sequence (P07949 29-1114 V804M): as the sequence (P07949 29-1114) above, with V776M counted along it
Method in brief: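 Enzyme was pre-incubated with compound at room temperature for 30 min, then substrate and ATP were added for a 40 min reaction. HTRF signal was read after 45 min with TK antibody-cryptate and streptavidin-XL665. IC50 came from a four-parameter fit of percent inhibition against DMSO and no-enzyme controls.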

[5] = target: RET-V804L (Homo sapiens, UniProt P07949, V804L); test: RET inhibition experiment (HTRF KinEASE-TK kit), mutant RET-V804L; type: biochemical; conditions: read-out: The IC50 (nM) for inhibiting RET-V804L
RET-V804L, sequence (P07949 29-1114 V804L): as the sequence (P07949 29-1114) above, with V776L counted along it
Description: as §1

[6] = target: RET-M918T (Homo sapiens, UniProt P07949, M918T); test: RET inhibition experiment (HTRF KinEASE-TK kit), mutant RET-M918T; type: biochemical; conditions: read-out: The IC50 (nM) for inhibiting the enzyme RET-M918T
RET-M918T, sequence (P07949 29-1114 M918T): as the sequence (P07949 29-1114) above, with M890T counted along it
Description: as §1

[7] = target: T1, RET-CCDC6 (Homo sapiens, UniProt P07949); test: RET inhibition experiment (HTRF KinEASE-TK kit), fusion-type RET enzyme; type: biochemical; conditions: read-out: The IC50 (nM) for inhibiting RET-CCDC6
T1 construct: CCDC6 fusion partner (Q16204 for human); the other entry of the earlier key: CCDC6 (Q16204, Coiled-coil domain-containing protein 6)
T1 sequence (P07949 with tags, fused parts or gaps): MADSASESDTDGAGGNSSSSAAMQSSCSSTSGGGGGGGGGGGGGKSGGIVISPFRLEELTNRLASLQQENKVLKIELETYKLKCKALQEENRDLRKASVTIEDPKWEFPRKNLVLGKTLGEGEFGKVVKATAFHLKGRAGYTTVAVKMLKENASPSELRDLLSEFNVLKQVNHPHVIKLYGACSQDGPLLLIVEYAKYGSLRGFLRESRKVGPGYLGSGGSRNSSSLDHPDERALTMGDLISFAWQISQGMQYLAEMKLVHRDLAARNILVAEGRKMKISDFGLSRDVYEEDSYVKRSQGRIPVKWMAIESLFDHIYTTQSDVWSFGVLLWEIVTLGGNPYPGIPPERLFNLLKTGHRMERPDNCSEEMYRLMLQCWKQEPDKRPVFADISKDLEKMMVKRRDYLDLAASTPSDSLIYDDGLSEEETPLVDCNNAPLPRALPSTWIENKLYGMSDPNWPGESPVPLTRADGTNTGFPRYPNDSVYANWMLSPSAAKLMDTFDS
Description: as §1

[8] = target: VEGFR2 (Homo sapiens, UniProt P35968); test: VEGFR2 inhibition experiment (HTRF KinEASE-TK kit); type: biochemical; conditions: read-out: Inhibition rate on VEGFR2; for inhibition at 0.1 µM: 100 nM
VEGFR2, sequence (P35968 20-1356, species assumed): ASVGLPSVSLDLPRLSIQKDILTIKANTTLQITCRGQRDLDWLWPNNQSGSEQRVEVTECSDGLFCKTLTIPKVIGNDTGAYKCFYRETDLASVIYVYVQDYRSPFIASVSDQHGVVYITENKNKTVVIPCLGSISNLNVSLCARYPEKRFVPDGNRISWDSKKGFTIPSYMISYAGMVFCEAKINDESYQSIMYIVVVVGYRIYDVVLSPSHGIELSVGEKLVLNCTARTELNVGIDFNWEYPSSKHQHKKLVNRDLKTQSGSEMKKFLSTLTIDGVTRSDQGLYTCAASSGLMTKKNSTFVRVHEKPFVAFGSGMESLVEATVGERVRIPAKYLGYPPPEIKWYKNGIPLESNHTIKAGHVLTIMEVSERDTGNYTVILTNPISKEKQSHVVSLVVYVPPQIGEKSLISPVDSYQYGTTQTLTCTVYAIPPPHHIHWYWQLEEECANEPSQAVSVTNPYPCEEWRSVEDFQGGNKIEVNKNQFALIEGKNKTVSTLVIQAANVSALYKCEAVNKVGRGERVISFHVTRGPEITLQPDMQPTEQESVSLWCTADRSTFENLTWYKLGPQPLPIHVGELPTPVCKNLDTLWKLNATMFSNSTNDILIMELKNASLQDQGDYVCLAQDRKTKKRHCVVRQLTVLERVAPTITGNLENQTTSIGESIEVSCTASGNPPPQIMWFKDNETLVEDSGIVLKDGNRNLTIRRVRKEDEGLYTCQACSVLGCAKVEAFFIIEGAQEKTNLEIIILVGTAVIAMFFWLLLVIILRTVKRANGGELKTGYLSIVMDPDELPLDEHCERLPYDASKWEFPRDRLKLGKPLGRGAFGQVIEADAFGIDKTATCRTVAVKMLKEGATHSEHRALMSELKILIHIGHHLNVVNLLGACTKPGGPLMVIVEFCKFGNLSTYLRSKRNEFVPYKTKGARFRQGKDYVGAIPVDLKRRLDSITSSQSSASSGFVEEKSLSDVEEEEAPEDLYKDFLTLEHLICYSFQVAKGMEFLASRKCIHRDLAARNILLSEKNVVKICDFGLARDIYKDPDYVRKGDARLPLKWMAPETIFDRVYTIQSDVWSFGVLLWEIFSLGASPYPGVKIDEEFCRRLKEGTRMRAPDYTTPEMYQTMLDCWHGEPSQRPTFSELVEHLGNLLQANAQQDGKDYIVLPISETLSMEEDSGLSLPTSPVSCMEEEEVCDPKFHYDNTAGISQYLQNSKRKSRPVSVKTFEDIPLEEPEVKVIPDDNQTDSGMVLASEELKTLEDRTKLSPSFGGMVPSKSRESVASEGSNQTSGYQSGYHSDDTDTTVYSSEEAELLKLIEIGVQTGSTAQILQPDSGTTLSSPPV
Method in brief: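 HTRF KinEASE-TK format: enzyme and compound were preincubated 30 min at room temperature, then substrate and ATP added for 40 min, followed by cryptate antibody/streptavidin-XL665 detection for 45 min. Inhibition was normalised to DMSO and no-enzyme controls; IC50 from a four-parameter fit.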

AUC(0-t) ([1]; brain): 157 ng·h/mL | Cmax ([1]; brain): 30.8 ng/mL | Kp ([1]; brain): 0.018 | Tmax ([1]; brain): 30 min | AUC(0-t) ([1]; lung): 25100 ng·h/mL | Cmax ([1]; lung): 3570 ng/mL | Kp ([1]; lung): 2.9 | Tmax ([1]; lung): 30 min | AUC(0-t) ([1]; plasma): 8650 ng·h/mL | Cmax ([1]; plasma): 1490 ng/mL | Kp ([1]; plasma): 1 | Tmax ([1]; plasma): 60 min | AUC(0-t) ([1]; thyroid): 6350 ng·h/mL | Cmax ([1]; thyroid): 888 ng/mL | Kp ([1]; thyroid): 0.73 | Tmax ([1]; thyroid): 30 min
Compound: CO[C@]1(C(=O)N[C@@H](C)c2ccc(-n3cc(F)cn3)nc2)CC[C@H](c2nc(C)cc(Nc3cc(C)[nH]n3)n2)CC1 [BLU-667, reference compound]
Relative tumor growth rate T/C [2]: 33.62% | Tumor growth inhibition rate TGI [2]: 88.82%

Compound: Cc1cc(Nc2cc(C)[nH]n2)nc(-c2ccc(N3CC4CC(C3)N4Cc3ccc(-n4cccn4)nc3)nc2)n1 [Compound 60, 2-(6-(6-((6-(1H-pyrazol-1-yl)pyridin-3-yl)methyl)-3,6-diazabicyclo[3.1.1]heptan-3-yl)pyridin-3-yl)-6-methyl-N-(5-methyl-1H-pyrazol-3-yl)pyrimidin-4-amine]
IC50 [3]: 2.7 ± 0.69 nM | IC50 [4]: 3.77 ± 0.52 nM | IC50 [5]: 5.07 ± 0.4 nM | IC50 [6]: 1.29 ± 0.27 nM | IC50 [7]: 3.99 ± 0.79 nM | inhibition at 0.1 µM [8]: 65%

Compound: Cc1cc(Nc2cc(C)[nH]n2)nc(-c2ccc(N3CC4CC(C3)N4Cc3ccc(-n4ccc(C5CC5)n4)nc3)nc2)n1 [Compound 120, 2-(6-(6-((6-(3-cyclopropyl-1H-pyrazol-1-yl)pyridin-3-yl)methyl)-3,6-diazabicyclo[3.1.1]heptan-3-yl)pyridin-3-yl)-6-methyl-N-(5-methyl-1H-pyrazol-3-yl)pyrimidin-4-amine]
IC50 [3]: 7.33 ± 1.19 nM | IC50 [4]: 9.12 ± 1.85 nM | IC50 [5]: 10.1 ± 1.05 nM | IC50 [6]: 15.8 ± 3.65 nM | IC50 [7]: 18.7 ± 7.27 nM | inhibition at 0.1 µM [8]: 28%

Compound: Cc1cc(Nc2cc(C)[nH]n2)nc(-c2ccc(N3CC4CC(C3)N4Cc3ccc(-n4ncc(F)c4C)nc3)nc2)n1 [Compound 122, 2-(6-(6-((6-(4-fluoro-5-methyl-1H-pyrazol-1-yl)pyridin-3-yl)methyl)-3,6-diazabicyclo[3.1.1]heptan-3-yl)pyridin-3-yl)-6-methyl-N-(5-methyl-1H-pyrazol-3-yl)pyrimidin-4-amine]
IC50 [3]: 2.35 ± 0.24 nM | IC50 [4]: 3.33 ± 0.75 nM | IC50 [5]: 4.79 ± 1.68 nM | IC50 [6]: 4.03 ± 0.66 nM | IC50 [7]: 2.91 ± 0.41 nM | inhibition at 0.3 µM ([8]; 300 nM): 67%
